Article PMC9680484, “Synthesis, Biophysical Interaction of DNA/BSA, Equilibrium and Stopped-Flow Kinetic Studies, and Biological Evaluation of bis(2-Picolyl)amine-Based Nickel(II) Complex” (Biomimetics, 2022)
In brackets after ≈: the same amount, converted by molar mass.

How the values were obtained:
BSA [1] = molecular target: T1, BSA (Bos taurus, UniProt P02769); test: BSA UV-vis absorption titration (Benesi-Hildebrand binding constant); parameters: species or system bovine
Procedure: Interactions between the most common blood protein, serum albumin, and complexes have sparked a lot of interest recently because of their structural similarity to human serum albumin. To better understand the mechanism of interaction between BPA and its nickel(II) complex NiBPA with BSA, fluorescence quenching studies were carried out. BSA’s fluorescence is due to intrinsic protein characteristics, such as the presence of tryptophan and tyrosine residues. Variations in the emission spectra caused by protein conformational changes, subunit interaction, substrate binding, or denaturation are largely attributed to the tryptophan residue. As a result, BSA fluorescence behavior can provide valuable insight into protein structure, dynamics, and folding. Fluorescence titration experiments were performed at room temperature with BSA and different concentrations of BPA and NiBPA in the range 200–600 nm (λex. 280 nm). A slight red shift (40 percent, BPA; 65 percent, NiBPA; Figure 3) reduced the intensity of BSA fluorescence at 343 nm. The presence of the protein’s active site in a hydrophobic environment causes the redshift. […] The quenching mechanism can be set to either static or dynamic operation. […] The binding constants for BPA and NiBPA were calculated using Equation (1) and found to be 0.4 × 10^4 M^−1 and 0.82 × 10^4 M^−1, respectively (Table 1). […]

ct-DNA = ct-DNA electronic absorption titration; assay type: binding; conditions: phosphate buffer pH 7.2
Procedure: Electronic absorption measurements were performed with a constant concentration of ctDNA and increasing concentrations of BPA and NiBPA (Na-phosphate buffer solution, pH 7.2). […] Intrinsic fluorescence was measured with the ct-DNA solution at the excitation wavelength (ex, 330), and emission spectra were recorded at 550–700 nm after aliquot addition of BPA and NiBPA.
Absorption titration information was depicted in Figure 6 to understand the mode of interaction of complexes with ct-DNA. Increased addition of a solution of BPA to a solution of ct-DNA causes hyperchromic for the band at 264 nm with a blue shift of 5 nm (259 nm), as shown in the absorption titration spectrum (Figure 6). The band at 278 nm, on the other hand, was hypochromic with a small blue shift of 2 nm (276 nm). The presence of […] in the medium was indicated by the isosbestic point in the titration curve at 274 nm. […] The hydrogen bonds formed with the –OH and SH groups of BPA and NiBPA are caused by the presence of many accessible hydrogen binding sites in the DNA major and minor grooves. The binding constants for BPA (0.16 × 10^5 M^−1) and NiBPA (0.52 × 10^5 M^−1) are similar to those of well-known groove binding rather than classical intercalation, implying that NiBPA interacts with ct-DNA much more strongly than BPA under investigation.

BSA [2] = molecular target: T1, BSA; test: Stopped-flow kinetics of BSA binding; parameters: species or system bovine; conditions: for ΔG1: ΔGbind = RT·ln(Kd); for K2 (2nd step): irreversible step for BPA
Procedure: The kinetics of protein and DNA binding was measured using an Applied KinetAsyst SF-61DX2 stopped-flow instrument. At 25 °C, equal volumes of compounds against protein and DNA solutions were rapidly mixed in the stopped-flow instrument. The binding reactions were studied using a 10-fold excess of the ligand BPA and NiBPA under pseudo-first-order conditions. For each experimental condition, all recorded rate constants were taken into account, from which the mean values of at least three independent kinetic runs were calculated.
Because many medicines with lower cellular toxicity have a slow DNA dissociation rate, several factors, such as the strength of binding and the drug’s affinity for DNA, as well as the kinetic stability of DNA-drug adducts, may contribute to antitumor effectiveness. The stopped-flow technique was used to study in-vitro protein/DNA binding to BPA and propose a mechanism in order to obtain such information. The kinetic traces were recorded at 265 nm within 100 s (BPA) and 5 s (NiBPA), respectively, to capture the interaction process with BSA. […] In the case of ct-DNA interaction, the kinetic traces were recorded at 290 nm, and both BPA and NiBPA followed a similar pattern since kinetic traces for BPA and NiBPA were collected within 100 s, covering the entire interaction process. […] Over the concentration range of BPA and NiBPA, the study of kinetic traces performed under pseudo-first-order conditions may be fitted to two kinetic phases (Figure 7) evaluated using the following Equation (3):(3) A=a1e^−kobs1t1+a2e^−kobs2t2+A0
The interaction process involves at least two steps, and the stopped-flow records the two kinetic phases as a fast binding (rate constant kobs1) followed by a slow first-order isomerization process (rate constant kobs2). […] Both kon and koff were used to calculate the equilibrium association constants Kaff [kon/koff M^−1] and the equilibrium dissociation constants Kd [koff/kon M].
The difference between the free energy, G, of BSA molecules alone in the solution and when bound together is related to the equilibrium dissociation constant, Kd1. Equation (4) gives the binding free energy change Gbind. (4) ΔGbind=RT·ln(Kd)

[3] = test system: human liver cancer (HepG2) cell lines; test: MTT cytotoxicity assay, liver cancer cells; assay type: cell-based
Procedure: Methyl thiazolyl tetrazolium (MTT) colorimetry [47] was used to assess the cytotoxicity of BPA and one for human liver cancer (HepG2) cell lines. MTT can be converted into formazan by living cells with an active metabolism, but this ability is lost in dying cells. Therefore, in this study, the MTT assay was used to determine how many viable cells there were. Before the investigated compounds were added, cells were cultured in 96-well flat-bottomed microtiter plates at a density of 1 × 10^4 cells/well (100 l/well) for 70 to 80 percent confluent cultures, and the cultures were then incubated at 37 °C and 5 percent CO2 for 24 h. The compounds were used in a range of concentrations (31.2, 62.5, 125.0, 250.0, 500.0, and 1000.0 g/mL), and the cells were cultured for 24 h. Then, 10 µl of the 12 mM MTT stock solution (5 mg/mL MTT in sterile PBS) was added to each well at the conclusion of the incubation period. After that, the plate was incubated at 37 °C for 4 h. […] On an ELISA reader, the absorbance at 570 nm was read (StatFax-2100, Awareness Technology, Inc., USA). The percentage of cells inhibited was calculated using: % CellInhibition=100−T−T0/C−T0 where T is the optical density of the test sample, To is the optical density at time zero, and C is the optical density of the control.

E. coli = test: Antibacterial MIC/MBC, E. coli; assay type: cell-based; conditions: Gram-negative
Procedure: Several studies have shown that organic compound coordination with a metallic element results in significant changes in the biological activity of both the organic ligand and the metal. As a result, BPA and its nickel complex NiBPA were tested in vitro for antibacterial activity against Gram-positive (S. aureus and S epidermidis) and Gram-negative (P. mirabilis and E. coli) bacteria. Figure 10 depicts the antibacterial function of BPA and NiBPA as the diameter of the growth-inhibition region in millimeters. […] The MBC is identified by determining the lowest concentration of antibacterial agents that reduces the viability of the initial bacterial inoculum by 99.9%. The MIC or MBC strain was chosen based on the value agreed upon on two or more occasions. The antibiotic tobramycin (TOB) was used to control the situation. The inhibition zone, as well as the MIC and MBC data, leads to the following conclusions. […] This is explained by the metal ion’s polarity and cationic charge, as NiBPA has a cationic property with two positive charges. […] The interaction between Gram-negative bacteria and NiBPA was stronger than that of Gram-positive bacteria due to the higher negative charge on the cell surface, despite the presence of an outer membrane in Gram-negative bacteria (see Figure 11).

SMILES: c1ccc(CNCc2ccccn2)nc1 [BPA, bis(2-picolyl)amine]
- Kd (BSA [1]): 0.25 mM
- binding constant (ct-DNA) (ct-DNA): 16000 M⁻¹
- Ka1 (k1/k−1) (BSA [2]; BSA, 1st step, 25 °C): 73.5 M⁻¹
- Kd (BSA [2]; BSA, 1st step, 25 °C, read-out: Kd1 (k−1/k1)): 13.6 mM
- ΔG1 (BSA [2]; BSA, 1st step): -2.53 kcal/mol
- K2 (irreversible 2nd step) (BSA [2]; BSA, 2nd step): 0.82 M⁻¹
- K2 (2nd step) (BSA [2]; BSA, 2nd step, 25 °C): Irreversible step with K2 = 0.82 ± 0.08 M^−1s^−1
- k−2 (BSA [2]; BSA, 2nd step, irreversibility): ≈ 0
- k−1 (1st step, first-order dissociation constant) (BSA [2]; BSA, 25 °C): 0.17 ± 0.0 s⁻¹
- kon (BSA [2]; bovine, read-out: k1 (1st step, second-order association constant)): 12.5 ± 1.1 M⁻¹ s⁻¹
- IC50 ([3]; Homo sapiens, HepG2, 24 h): 100 ± 1 µg/mL (≈ 502 µM)
- MBC (E. coli): 0 µg/mL

SMILES: O.[Cl][Ni][Cl].c1ccc(CNCc2ccccn2)nc1 [NiBPA, [(BPA)NiCl2(H2O)]]
- binding constant (BSA) (BSA [1]; BSA UV absorption): 8200 M⁻¹
- binding constant (ct-DNA) (ct-DNA): 52000 M⁻¹
- Ka1 (k1/k−1) (BSA [2]; BSA, 1st step, 25 °C): 7.3 M⁻¹
- ΔG1 (BSA [2]; BSA, 1st step): -1.22 kcal/mol
- ΔG2 (BSA [2]; BSA, 2nd step): −8.3 kJmol^−1
- k−2 (BSA [2]; BSA, 2nd step, 25 °C): 620 ± 6 10^−3s^−1
- K2 (2nd step) (BSA [2]; BSA, 2nd step, 25 °C): 2.0 ± 0.2 M⁻¹ s⁻¹
- Ka2 (BSA [2]; BSA, 2nd step, 25 °C, listed as 1): 3.2 M⁻¹
- k1 (1st step, second-order association constant) (BSA [2]; BSA, 25 °C): 53.6 ± 9.0 M⁻¹ s⁻¹
- k−1 (1st step, first-order dissociation constant) (BSA [2]; BSA, 25 °C): 7.3 ± 0.3 s⁻¹
- Ka (overall binding) (BSA [2]; BSA, overall): 30.3 M⁻¹
- ΔG (overall reaction) (BSA [2]; BSA, overall): −8.4 kJmol^−1
- Kd (BSA [2]; BSA, overall, read-out: Kd (overall binding)): 34 mM
- Kd (BSA [2]; BSA, overall, read-out: Kd (overall reaction)): 32.3 mM
- IC50 ([3]; HepG2, MTT, 24 h): 75.0 ± 0.5 µg/mL
- MBC (E. coli): 63.0 µg/mL
